Experimental findings from ChEMBL document CHEMBL4251632, “Synthesis and antidepressant-like activity of novel aralkyl piperazine derivatives targeting SSRI/5-HT1A/5-HT7” (Eur J Med Chem, 2018) are described below.

In general, IC50 refers to the point on the concentration scale where inhibition reaches its midpoint. What is called AUC(0-t) is exposure summed from dosing to a finite time, without extrapolation to infinity. In general, inhibition refers to the percentage by which the read-out fell short of the control. By Ki is commonly meant the equilibrium dissociation constant of an inhibitor or competing ligand from its target. For orientation: Tmax means the time at which the peak concentration occurs.

Data set [1] concerns Rattus norvegicus. Briefly: Apparent clearance during terminal phase in Sprague-Dawley rat at 0.5 mg/kg, iv administered as single dose by LC-MS/MS analysis. To be noted: in vivo. Format: ADME, organism-based.
For data set [2], the target named is Sodium-dependent serotonin transporter (Rattus norvegicus, UniProt P31652). In words: Inhibition of [3H]serotonin reuptake in rat brain synaptosomes SERT after 15 mins by TopCount scintillation counting method. Format: subcellular.
Chain of Sodium-dependent serotonin transporter (P31652 whole entry): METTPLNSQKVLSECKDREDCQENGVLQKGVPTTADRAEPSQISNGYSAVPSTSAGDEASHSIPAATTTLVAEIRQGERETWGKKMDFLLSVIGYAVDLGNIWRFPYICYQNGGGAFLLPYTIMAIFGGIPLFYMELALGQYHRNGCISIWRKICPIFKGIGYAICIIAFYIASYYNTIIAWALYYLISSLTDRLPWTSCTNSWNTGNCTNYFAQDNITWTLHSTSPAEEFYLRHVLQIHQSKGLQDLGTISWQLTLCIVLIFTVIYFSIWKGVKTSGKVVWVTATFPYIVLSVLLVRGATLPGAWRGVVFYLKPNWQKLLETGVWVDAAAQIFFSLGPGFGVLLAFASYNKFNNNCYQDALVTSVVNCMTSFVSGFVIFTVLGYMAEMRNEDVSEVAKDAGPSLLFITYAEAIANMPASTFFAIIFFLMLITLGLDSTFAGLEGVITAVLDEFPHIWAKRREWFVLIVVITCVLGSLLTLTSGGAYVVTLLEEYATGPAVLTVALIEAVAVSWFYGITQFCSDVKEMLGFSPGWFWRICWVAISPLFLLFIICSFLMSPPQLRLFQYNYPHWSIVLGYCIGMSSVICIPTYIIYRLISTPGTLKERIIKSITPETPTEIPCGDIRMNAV
Data set [3] deals with Mus musculus. Briefly: Antidepressant-like activity in mouse assessed as reduction in immobility time at 40 mg/kg/day, po once daily for 7 days measured for last 4 mins of 6 mins test at 1 hr post last dose by forced swim test relative to control. Format: functional. On the set-up: scale not given: the % may be the effect or the level left.
Data set [4] in a line: Plasma concentration in Sprague-Dawley rat at 0.5 mg/kg, iv administered as single dose measured after 6 hrs by LC-MS/MS analysis. It counts as ADME, organism-based.
A short description of data set [5]: Plasma concentration in Sprague-Dawley rat at 2 mg/kg, po administered as single dose measured after 8 hrs by LC-MS/MS analysis. It counts as ADME, organism-based.
Data set [6] deals with Mus musculus. In words: Antidepressant-like activity in mouse assessed as reduction in immobility time at 20 mg/kg/day, po administered once daily for 7 days measured for 5 mins at 1 hr post last dose by tail suspension test relative to control. Format: functional. Set-up: scale not given: the % may be the effect or the level left.
Data set [7] can be described thus: AUC (0 to t) in Sprague-Dawley rat at 2 mg/kg, po administered as single dose by LC-MS/MS analysis. Format: ADME, organism-based. Conditions: in vivo.
Data set [8] in a line: Plasma concentration in Sprague-Dawley rat at 2 mg/kg, po administered as single dose measured after 4 hrs by LC-MS/MS analysis. Format: ADME, organism-based.
Data set [9] can be described thus: Plasma concentration in Sprague-Dawley rat at 2 mg/kg, po administered as single dose measured after 1 hr by LC-MS/MS analysis. Format: ADME, organism-based.
Data set [10] has as its target Sodium-dependent serotonin transporter (Rattus norvegicus) (UniProt P31652). In words: Inhibition of [3H]serotonin reuptake in rat brain synaptosomes SERT at 10 uM after 15 mins by TopCount scintillation counting method relative to control. It counts as subcellular.
Data set [11] deals with T1, Alpha-1A adrenergic receptor (Homo sapiens, UniProt P35348).
T1 sequence (P35348 whole entry): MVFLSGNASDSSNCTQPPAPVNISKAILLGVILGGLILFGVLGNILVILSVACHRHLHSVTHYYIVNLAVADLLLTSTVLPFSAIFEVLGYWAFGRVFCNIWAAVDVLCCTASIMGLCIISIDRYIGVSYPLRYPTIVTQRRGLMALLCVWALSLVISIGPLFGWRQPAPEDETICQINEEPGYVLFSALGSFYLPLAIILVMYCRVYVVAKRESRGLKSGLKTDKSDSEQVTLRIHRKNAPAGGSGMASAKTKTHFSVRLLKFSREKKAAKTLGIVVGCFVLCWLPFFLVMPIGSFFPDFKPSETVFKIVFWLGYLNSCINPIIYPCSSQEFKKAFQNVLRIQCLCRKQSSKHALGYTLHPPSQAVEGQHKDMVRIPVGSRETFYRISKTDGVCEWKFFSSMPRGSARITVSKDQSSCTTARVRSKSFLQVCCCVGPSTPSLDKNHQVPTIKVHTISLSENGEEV
Briefly: Displacement of [3H]prazosin from alpha1-adrenoceptor (unknown origin) in cerebral cortex membranes after 60 mins by TopCount scintillation counting method. It counts as cell membranes, Membrane.

The test system of data set [12] is Mus musculus. In words: Antidepressant-like activity in mouse assessed as reduction in immobility time at 10 mg/kg/day, po administered once daily for 7 days measured for 5 mins at 1 hr post last dose by tail suspension test relative to control. It counts as functional. Set-up: scale not given: the % may be the effect or the level left.
The target in data set [13] is T2, 5-hydroxytryptamine receptor 1A (Homo sapiens, UniProt P08908).
T2 sequence (P08908 whole entry): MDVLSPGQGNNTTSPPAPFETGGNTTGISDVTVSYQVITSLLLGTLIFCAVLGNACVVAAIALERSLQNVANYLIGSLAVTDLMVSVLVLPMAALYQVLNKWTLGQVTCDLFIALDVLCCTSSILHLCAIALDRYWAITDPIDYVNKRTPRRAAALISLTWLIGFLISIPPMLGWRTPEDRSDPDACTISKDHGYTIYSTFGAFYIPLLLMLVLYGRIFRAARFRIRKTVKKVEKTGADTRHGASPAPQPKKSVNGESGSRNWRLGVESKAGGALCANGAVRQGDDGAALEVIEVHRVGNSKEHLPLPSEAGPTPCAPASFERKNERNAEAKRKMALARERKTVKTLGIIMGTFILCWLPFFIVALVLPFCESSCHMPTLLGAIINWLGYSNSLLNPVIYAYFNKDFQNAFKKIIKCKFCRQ
Briefly: Displacement of [3H]8-OH-DPAT from recombinant human 5-HT1A receptor expressed in HEK293 cell membranes after 60 mins by TopCount scintillation counting method. For orientation: Displacement assays read how much labelled ligand stays bound in the presence of the test substance.

Data set [14] is described as follows: AUC (0 to t) in Sprague-Dawley rat at 0.5 mg/kg, iv administered as single dose by LC-MS/MS analysis. It counts as ADME, organism-based. Conditions: in vivo.
A short description of data set [15]: Tmax in Sprague-Dawley rat at 0.5 mg/kg, iv administered as single dose by LC-MS/MS analysis. It counts as ADME, organism-based. To be noted: in vivo.
Data set [16] in a line: Plasma concentration in Sprague-Dawley rat at 2 mg/kg, po administered as single dose measured after 9 hrs by LC-MS/MS analysis. It counts as ADME, organism-based.
Data set [17] is described as follows: Plasma concentration in Sprague-Dawley rat at 0.5 mg/kg, iv administered as single dose measured after 30 mins by LC-MS/MS analysis. Format: ADME, organism-based.
The test system of data set [18] is Rattus norvegicus. In words: Apparent volume of distribution during terminal phase in Sprague-Dawley rat at 0.5 mg/kg, iv administered as single dose by LC-MS/MS analysis. Format: ADME, organism-based. To be noted: in vivo.

Bounds are passed on as bounds.

Chain of Sodium-dependent serotonin transporter (Rattus norvegicus) (P31652 whole entry): as the sequence (P31652 whole entry) above

As to `Fc1ccc(N2CCN(CCCc3c[nH]c4ccc(F)cc34)CC2)c(-c2ccccc2)c1`, the CLz/F with Rattus norvegicus [1] is 25 mL/min/kg. For the same compound, the IC50 in data set [2] was 25 nM. In addition, the Activity worked out at 54% in the data set with Mus musculus [3], 20% in the data set on Mus musculus [6] and 18% in the data set on Mus musculus [12]. The compound further showed a concentration at 6 h in data set [4] of 12.4 ng/mL. Moreover, the concentration at 8 h in data set [5] was 47.4 ng/mL. Also, the figures for the AUC(0-t) in data set [7] and in data set [14] were 536 ng·h/mL and 287 ng·h/mL, respectively. The compound also registered a concentration at 4 h in [8] of 60.7 ng/mL. For the same compound, the concentration at 1 h in data set [9] was 72.8 ng/mL. In addition, the inhibition in data set [10] was above 90%. The Ki in data set [11] and in data set [13] was 28 nM in each case. In addition, the Tmax in data set [15] was 6 min. The concentration at 9 h in [16] was found to be 34.9 ng/mL. This compound also displayed a concentration at 0.5 h in data set [17] of 80.8 ng/mL. The Vz/F in the data set on Rattus norvegicus [18] is 7.4 L/kg.
